Results taken from patent publication US11058691B2, “Nitric oxide releasing prostaglandin derivatives for treating normal tension glaucoma” (BAUSCH & LOMB INCORPORATED, priority 2016, dated 2021).
“Also recorded” adds a separate entry of the source. Counter-ions that a name gives are not always drawn.

Key:
[1] = Post hoc analysis of a single-arm open-label Phase 3 clinical study in Japanese subjects: IOP lowering in eyes with baseline IOP ≤19 mm Hg; assay type: in vivo, human; details: Japanese population, baseline IOP ≤19 mm Hg (10 AM); 0.024% solution once daily in the evening; over the 12 months study period
Text: The findings reported below derive from a post hoc analysis of the results of a single-arm, multicenter, open-label Phase 3 clinical study that evaluated the IOP lowering effect of a 0.024% solution of Compound (1) dissolved in vehicle in Japanese subjects with open-angle glaucoma (including normal-tension glaucoma, pigmentary glaucoma, or pseudoexfoliative glaucoma) or ocular hypertension.
Subjects≥20 years instilled one drop of a 0.024% solution of Compound (1) once daily in the evening for 12 months. Intraocular pressure was measured at 10 AM at baseline, and every 4 weeks thereafter for a total of 13 visits. Study and non-study (i.e. fellow) eyes with normal IOP at baseline treated with Compound (1) 0.024% once a day in the evening (n=66 and n=79 for treated study and treated fellow eyes respectively) were identified, and IOP outcomes were summarized using descriptive statistics and two-sided, 95% confidence intervals (CI) for the means.
Normal IOP was defined as ≤19 mm Hg (mean IOP measured at 10 AM) in the Japanese population, since Asian populations typically have lower IOP than non-Asian populations.

[2] = Post hoc analysis of two Phase 3 clinical studies: IOP lowering in fellow eyes with baseline IOP ≤21 mm Hg; assay type: in vivo, human; details: for IOP lowering: fellow eyes with normal IOP at baseline (≤21 mm Hg mean diurnal)
Text: The findings reported below derive from a post hoc analysis of the results of two multicenter, double-masked, parallel-group Phase 3 clinical studies that evaluated the intraocular pressure (IOP) lowering effect of a 0.024% solution of Compound (1) dissolved in vehicle in subjects with open-angle glaucoma or ocular hypertension.
Subjects≥18 years instilled one drop of a 0.024% solution of Compound (1) once daily in the evening and vehicle in the morning or timolol maleate 0.5% twice daily for 3 months (active controlled efficacy phase). Thereafter all subjects instilled Compound (1) for a further 9 months in the first study or 3 months in the second study (open-label safety extension phase).
Intraocular pressure (IOP) was measured at 8 AM, 12 PM, and 4 PM at all visits including baseline, week 2, week 6, month 3, month 6 (both studies) and months 9 and 12 (first study only).
Non-study (i.e. fellow) eyes with normal IOP at baseline treated with Compound (1) 0.024% once a day in the evening (n=50; treatment for up to 12 months) or with timolol maleate 0.5% twice a day (n=17; treatment for 3 months) were identified, and IOP outcomes were summarized using descriptive statistics and two-sided, 95% confidence intervals (CI) for the means.
Normal IOP was defined as ≤21 mm Hg (mean diurnal; average of 8 AM, 12 PM and 4 PM measurements) in the primarily Caucasian population.

[3] = 3 month efficacy phase, Compound (1) 0.024% once daily in the evening, timolol maleate 0.5% twice daily

SMILES	IOP lowering in the study eye [1]	IOP lowering in the treated fellow eye [1]	IOP lowering effectiveness (in words) ([2]; eyes with IOP in the normal range (baseline ≤21 mm Hg), 0.024% QD in the evening)	IOP lowering ([2]; 0.024% solution once daily in the evening, over the 12 months study period)	IOP lowering [2, 3]
O=C(CCC/C=C\C[C@@H]1[C@@H](CC[C@@H](O)CCc2ccccc2)[C@H](O)C[C@@H]1O)OCCCCO[N+](=O)[O-] (relative stereo) [Compound (1), [1R-[1α(Z), 2α(R*), 3α, 5α]]-7-[3,5-dihydroxy-2-(3-hydroxy-5-phenylpentyl)cyclopentyl]-5-heptenoic acid 4-(nitrooxy)butyl ester]	3.4-4.2 mm Hg	3.2-3.9 mm Hg	appears to be more effective than timolol maleate; also recorded: effective for IOP lowering in eyes with IOP in the normal range	4.2-4.9 mm Hg	4.6-4.9 mm Hg
CC(C)(C)NC[C@H](O)COc1nsnc1N1CCOCC1 [timolol maleate, reference compound]					3.6-4.5 mm Hg
